Where “and” joins values, the source holds several entries; their conditions need not be identical. Equal entries are not always repeated.
Key:
[1] = tested on: mouse myoblast cell line, C2C12; assay: Mouse myoblast assay (C2C12, Western blot); assay type: cell-based; conditions: C2C12, enantiomers 10 nM to 1000 nM, within 24 hr
Description: Cells or skeletal muscle tissue samples were homogenized in 50 ul lysis buffer (1% triton X-100, 20 mmol/L Tris, 140 mmol/L NaCl, 2 mmol/L EDTA, and 0.1% SDS) with protease and phosphatase inhibitor cocktails supplemented with 1 mmol/L PMSF, 2 mmol/L Na3VO4 and 1 mmol/L NaP. Homogenates were passed through an insulin syringe five times, sonicated for 30 min at 4DC and centrifuged (12,000×g) for 10 min. The total protein content was measured in the supernatant. A total of 40)Ig of protein was loaded onto a 5% or 10% SDS-PAGE, electrotransferred, incubated for 1 h in blocking solution (5% nonfat dry milk in TBS plus 0.1% Tween 20 [TBS-T]), followed by either a 3-h incubation at room temperature or overnight incubation at 4DC with primary antibodies. Primary antibodies were typically diluted 1:1000 or 1:2000 in TBS-T plus 5% bovine serum albumin. Membranes were washed (3× for 5 min) in TBS-T and incubated 1 h at room temperature in the presence of HRP-conjugated secondary antibodies diluted 1:10,000 in blocking solution. Membranes were again washed 3 times in TBS-T, and the immunoblots were developed using an enhanced chemiluminescence detection kit. The band intensities were digitally quantified. All primary antibodies are commercially available. Epicatechin induces follistatin expression, suppresses myostatin expression and accelerates the differentiation of cultured mouse myoblasts into myotubes. […] The mouse myoblast cell line, C2C12, was grown to semi-confluence in 6-well tissue culture plates and then exposed to epicatechin (100 nM) for three days using literature-standardized differentiation inducing media: DMEM supplemented with 2% horse serum. Proteins were extracted, separated by conventional gel electrophoresis and stained as Western blots by reacting with commercially available antibodies specific for markers of muscle cell growth and differentiation. In experiments examining the comparative effects of (−) and (+) epicatechin enantiomers on muscle cells, the cells were grown to semi-confluence in 6 well plates, placed into literature-standardized differentiation medium containing horse serum, and then stimulated for 24 hours with (−) or (+) epicatechin enantiomers, at concentrations ranging from 10 nM to 1000 nM. The cells were then harvested as above, and Western blots were prepared to determine relative expression of PGCla and follistatin, using commercially available, specific, primary antibodies.

[2] = Effect on body growth of rats on dexamethasone with or without epicatechin; assay type: in vivo, SD rats; conditions: for Femur Length / Tibia Length: 37th day; for WEIGHT Avg / LENGTH Avg: group average; for WEIGHT Ind: individual rat
Description: SD rats of the body weight 50-60 g and age 3-4 weeks were divided into 4 groups. […] All dosing were by subcutaneous (SC) mode of administration. Dosing of animals was continued for 36 days. Body weight was measured every alternate day, overall length was measured weekly. Animals were photographed periodically to further support data. Feed intake, general health and movement were assessed routinely. On 37th day animals were sacrificed and femur and tibia length were measured using Vernier Calipers. Blood was collected and stored.

[3] = epicatechin 3 MPK s/c followed by dexamethasone
[4] = epicatechin 10 MPK s/c followed by dexamethasone

In the case of `Oc1cc(O)c2c(c1)O[C@@H](c1ccc(O)c(O)c1)[C@@H](O)C2` [(+) epicatechin, (+)−epicatechin], the “expression of PGC1u” value [1] is reported as “stimulated” and the expression of follistatin [1] is reported as “stimulated”.
For `Oc1cc(O)c2c(c1)O[C@H](c1ccc(O)c(O)c1)[C@H](O)C2` [epicatechin], the “Femur Length” value [2, 3] was 29.57 mm, the “Tibia Length” value [2, 3] was 34.91 mm and the “Femur Length” value [2, 4] was 31.30 mm. For the same molecule, the “Tibia Length” value [2, 4] was 35.37 mm.
For `Oc1cc(O)c2c(c1)O[C@H](c1ccc(O)c(O)c1)[C@H](O)C2` [(−) epicatechin, (−)−epicatechin], the “expression of PGC1u” value [1] was “stimulated” and the expression of follistatin [1] was “stimulated”.
For `C[C@@H]1C[C@H]2[C@@H]3CCC4=CC(=O)C=C[C@]4(C)[C@@]3(F)[C@@H](O)C[C@]2(C)[C@@]1(O)C(=O)CO` [DEX, Dexamethasone], the “Femur Length” value ([2]; dexamethasone s/c alone) was 22.68 mm, the “Tibia Length” value ([2]; dexamethasone s/c alone) was 28.67 mm and the “WEIGHT Avg” value ([2]; Day 1, dexamethasone alone SC) was 59.3 g. For the same molecule, the “WEIGHT Ind” value ([2]; Day 1, dexamethasone alone SC) was 55.4 g and 57.7 g and 64.8 g, the “WEIGHT Avg” value ([2]; Day 11, dexamethasone alone SC) was 89.1 g and the “WEIGHT Ind” value ([2]; Day 11, dexamethasone alone SC) was 91.1 g and 84.3 g and 91.9 g. For the same molecule, the “LENGTH Avg” value ([2]; Day 13, dexamethasone alone SC) was 15.3 cm, the “LENGTH Avg” value ([2]; Day 23, dexamethasone alone SC) was 14.2 cm and the “WEIGHT Avg” value ([2]; Day 23, dexamethasone alone SC) was 85.7 g. The “WEIGHT Ind” value ([2]; Day 23, dexamethasone alone SC) was 88.0 g and 80.0 g and 89.0 g, the “LENGTH Avg” value ([2]; Day 35, dexamethasone alone SC) was 14.2 cm and the “WEIGHT Avg” value ([2]; Day 35, dexamethasone alone SC) was 96.1 g. The “WEIGHT Ind” value ([2]; Day 35, dexamethasone alone SC) was 103.9 g and 93.1 g and 91.5 g.

Reference: patent publication US11273144B2, “Compounds and compositions for the treatment of muscular disorders and bone disorders” (Epirium Bio Inc., priority 2012, dated 2022)
